The source of these data is article PMC9967085, “Properly Substituted Benzimidazoles as a New Promising Class of Nicotinate Phosphoribosyltransferase (NAPRT) Modulators” (Pharmaceuticals, 2023).

“And” between values parts separate entries of the source, which are not always exact repeats. Equal values may be shown once. Read-outs that look alike come from different tables or passages of the source.

The target in data set [1] is T1, Human recombinant NAPRT (Homo sapiens, UniProt Q6XQN6).
T1 construct: made in house
T1 sequence (Q6XQN6 1-538): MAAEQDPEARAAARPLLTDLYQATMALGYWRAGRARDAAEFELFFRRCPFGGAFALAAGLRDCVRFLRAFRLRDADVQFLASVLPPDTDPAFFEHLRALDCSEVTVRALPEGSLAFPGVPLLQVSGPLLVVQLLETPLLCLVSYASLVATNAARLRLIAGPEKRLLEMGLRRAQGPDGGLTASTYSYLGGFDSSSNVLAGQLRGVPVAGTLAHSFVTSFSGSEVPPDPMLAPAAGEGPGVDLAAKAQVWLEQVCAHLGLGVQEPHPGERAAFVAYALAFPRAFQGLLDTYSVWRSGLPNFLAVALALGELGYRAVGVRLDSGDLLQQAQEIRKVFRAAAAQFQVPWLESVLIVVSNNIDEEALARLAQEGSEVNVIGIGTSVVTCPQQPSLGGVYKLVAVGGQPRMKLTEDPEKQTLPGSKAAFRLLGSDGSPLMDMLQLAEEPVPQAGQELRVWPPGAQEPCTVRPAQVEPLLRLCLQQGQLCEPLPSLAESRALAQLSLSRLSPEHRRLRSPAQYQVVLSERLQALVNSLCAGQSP
Kind of data set: HPLC-based NAPRT activity screening assay. The class given is biochemical.

Data set [2] in a line: Plasma protein binding by equilibrium dialysis, mouse. The class given is in vitro ADME. The settings on record: performed at 0.5 μM, read-out: Protein Binding, Mouse plasma (FU). How it is done:
(§1) The in silico ADME characterization has recently been reported for NAPRT inhibitors 1, 15 and 16, belonging to different chemotypes, and the results indicated promising pharmacokinetic features for the studied compounds [17]. With the aim to preliminarily shed light on the pharmacokinetics of this series of compounds, 18 was evaluated for its in vitro ADME profile. Kinetic solubility at pH 7.4, plasma protein binding from human and mouse species determined by using equilibrium dialysis, intrinsic hepatic clearance determined in human and mouse liver microsomes, and permeability studies in MDCKII (Madin–Darby canine kidney cells, a cell strain derived from the distal tubule or collecting duct of the nephron) and MDCKII-MDR1 (MDCK II cells overexpressing the multidrug resistance protein 1, MDR1) cell lines were performed according to previously reported procedures. Both cell lines were originally obtained from American Type Culture Collection (ATCC) and have been cultured and amplified with respect to permeability assessment at the test site.

Data set [3] can be described thus: Kinetic solubility at pH 7.4. The format is physicochemical. The settings on record: pH 7.4, aqueous buffer, kinetic from dmso stock. The method, then:
as §1

Data set [4] is described as follows: Permeability in MDCKII cells. The class given is in vitro ADME, canine. The settings on record: dog, MDCK. The method, then:
as §1

Data set [5] addresses T1, Human recombinant NAPRT. Put plainly: Kinetic analyses of NAPRT inhibition (HPLC assay, Lineweaver–Burk plot). The class given is biochemical.
A short description of data set [6]: Plasma protein binding by equilibrium dialysis, human. The class given is in vitro ADME. The settings on record: performed at 0.5 μM, read-out: Protein Binding, Human plasma (FU). How it is done: as §1
Data set [7] in a line: Hepatic intrinsic clearance in mouse liver microsomes. The class given is in vitro ADME. How it is done: as §1
Data set [8] in a line: Hepatic intrinsic clearance in human liver microsomes. The format is in vitro ADME. How it is done:
as §1
Background: Microsomes from liver hold many membrane-bound enzymes, among them those of drug oxidation.

The subject of a further data set is MDCKII-MDR1. Kind of data set: Permeability in MDCKII-MDR1 cells. The class given is in vitro ADME, canine. The settings on record: from efflux ratio in MDCKII-MDR1. The method, then:
as §1

The next data set relates to MDR1. Put plainly: Permeability in MDCKII-MDR1 cells. The class given is in vitro ADME, canine. The settings on record: dog, MDCK-MDR1. The method, then:
as §1

What is called inhibition is the change of the read-out against control, counted positive when it falls. As usually defined, the kinetic solubility is solubility judged after dilution from a stock solution rather than from solid. As usually defined, the Papp A→B is how fast a substance crosses the layer from the apical side. Broadly, the Papp B→A is the apparent permeability from the basolateral to the apical side of a cell layer. The term Ki denotes a dissociation constant, usually derived from enzyme kinetics or from competition with a known ligand. For `CC(=O)Nc1cccc(CNc2ccc3c(c2)nc(C)n3C)c1` [Compound 18, N-(3-(((1,2-dimethyl-1H-benzo[d]imidazol-5-yl)amino)methyl)phenyl)acetamide], the “Effect on NAPRT catalytic activity (in words)” value at Human recombinant NAPRT [1] is recorded as “inhibit NAPRT activity”. On Human recombinant NAPRT [1] (1 mM compound, 0.2 mM NA, 0.4 mM PRPP), the “-Fold Stimulation (not active class)” value is “- (Not active, it is referred to compounds showing less than 10% inhibition or less than 1.10-fold stimulation)”. Also, the inhibition at 1000 µM at Human recombinant NAPRT [1] (1 mM compound, 0.2 mM NA, 0.4 mM PRPP, read-out: % Inhibition) was determined as 46.1 ± 8.1%. In addition, the fraction unbound at 0.5 μM in data set [2] is more than 0.5; in data set [6], 0.146. Further, the kinetic solubility in data set [3] is 312 µM and 130 µg/mL. Also, the values for the Papp A→B (in data set [4] (apical to basolateral); with MDR1 (apical to basolateral)) were 3.83 ×10⁻⁶ cm/s and 0.339 ×10⁻⁶ cm/s, respectively. The Papp B→A in data set [4] (basolateral to apical) was determined as 6.59 ×10⁻⁶ cm/s; in the data set with MDR1 (basolateral to apical) it was 17.4 ×10⁻⁶ cm/s. Also, the figures for the efflux ratio (in data set [4] (read-out: Efflux Ratio MDCKII (B-A/A-B)); in the data set on MDR1 (read-out: Efflux Ratio MDCKII-MDR1 (B-A/A-B))) were 1.7 and 51.3, respectively. For the same compound, the “Inhibition mechanism towards NA” value at Human recombinant NAPRT [5] is listed as “noncompetitive”. At Human recombinant NAPRT [5], the “Inhibition mechanism towards PRPP” value was “mixed”. The Ki at Human recombinant NAPRT [5] (NA 25 µM to 100 µM at 0.4 mM PRPP, noncompetitive, read-out: Ki towards NA) was 338 µM; at Human recombinant NAPRT [5] (PRPP 25 µM to 100 µM at 0.4 mM NA, mixed, read-out: Ki towards PRPP), 134 µM. In data set [7] (mouse liver microsomes), the “Mouse Cli” value stood at 120 µL/min/mg protein. Also, the “WSM in vivo prediction” value was 26.9 mL/min/kg in data set [7] (mouse, well-stirred model) and 6.83 mL/min/kg in data set [8] (human, well-stirred model). Besides, in [8] (human liver microsomes), the “Human Cli” value is less than 9.92 µL/min/mg protein. For the same compound, the P-gp substrate status result in the data set on MDCKII-MDR1 was “P-gp substrate”.
